Read-outs that look alike come from different tables or passages of the source.
Legend:
[1] = test system: MES-SA (Human uterine sarcoma); assay: Cytotoxicity assay (MTT, 48 h) on MES-SA; type: cell-based
Procedure: Cells were cultured in modified McCoy’s 5a medium supplemented with 10% fetal bovine serum. […] After reaching approx. 90% confluence, cells were detached using 0.05% trypsin/EDTA solution and counted. Then, cells were plated at optimal density for the logarithmic phase of growth. MES-SA cells were seeded onto 96-well plate at a concentration of 3000 cells per well. Blank control wells were left cell-free for background absorption measurement. […] Control cells were incubated with media without compounds. MTT assays were performed after 48 h incubation. Briefly, culture medium was removed from each well and replaced with fresh medium with MTT (0.2 mg/mL). […] The plate was further shaken for 15 min at room temperature, and the optical density at 540 nm of the wells was measured using multichannel spectrophotometer (Thermo Scientific Multiskan EX, Waltham, MA, USA). The percent of alive cells were calculated according to the formula 100∙T/C, where T is the optical density of a test well after 48 h exposure to compound, and C is control cells optical density after 48 h. All compounds were tested in three independent experiments. The IC50 values were calculated using Graph Pad Prism (GraphPad, Inc., La Jolla, CA, USA).

[2] = test system: MCF-7 (human adenocarcinoma); assay: Cytotoxicity assay (MTT, 48 h) on MCF-7; type: cell-based
[3] = test system: HCC1937 (human breast carcinoma); assay: Cytotoxicity assay (MTT, 48 h) on HCC1937; type: cell-based
[4] = test system: MES-SA/Dx-5 (doxorubicin resistant human uterine sarcoma); assay: cells; details: for IC20: MES-SA/Dx5, read-out: MES-SA/Dx5 IC20
PARP1 = PARP1 (Homo sapiens, UniProt P09874); assay: PARP1 inhibition activity; type: biochemical
[5] = test system: H9C2 (rat cardiomyocytes); assay: Cytotoxicity assay (MTT, 48 h) on H9C2; type: cell-based; details: read-out: H9C2, IC50
[6] = test system: MES-SA/Dx-5 (doxorubicin resistant human uterine sarcoma); design: method as in doi:10.1039/D2NJ00340F; details: MTT, cited from earlier work
MES-SA/Dx-5 cells [7] = test system: MES-SA/Dx-5 cells; design: method as in doi:10.1039/D2NJ00340F; details: IC50 of DOX/IC50 of DOX with compound at IC20, MES-SA/Dx-5; cited from earlier work
MES-SA/Dx-5 cells [8] = assay: Reversal of doxorubicin resistance (doxorubicin cytotoxicity in presence of compound at IC20); type: cell-based, human; details: IC50 of DOX/IC50 of DOX with a conjugate at IC20, MES-SA/Dx-5
Procedure: To calculate reversal fold (RF) values, doxorubicin cytotoxicity was determined in the presence of the tested compounds at their corresponding IC20 concentration as described above. RF values were calculated as IC50 of DOX/IC50 of DOX in the presence of a tested compound.
Next, the cytotoxicity of 5a–c was evaluated on a doxorubicin resistant human uterus sarcoma cell line (MES-SA/Dx-5) using the MTT assay (Table 2). […] To explore the potential of the novel compounds to reverse doxorubicin resistance, cytotoxicity of doxorubicin was evaluated in the presence of 5a–c at their corresponding IC20 concentrations.

[9] = test system: MES-SA/Dx-5 (doxorubicin resistant human uterine sarcoma); details: MES-SA/Dx-5 vs MES-SA
[10] = MES-SA/Dx5, read-out: MES-SA/Dx5 IC50
[11] = PARP1 inhibiting activity, Table 1, read-out: PARP1
[12] = Homo sapiens, MES-SA, read-out: MES-SA, IC50, MTT, 48 h
[13] = Homo sapiens, MCF7, 48 h, read-out: MCF-7, IC50, MTT, 48 h
[14] = Homo sapiens, HCC1937, 48 h, read-out: HCC1937, IC50, MTT, 48 h, BRCA1-deficient breast carcinoma

Sequence of PARP1 (P09874 whole entry, species assumed): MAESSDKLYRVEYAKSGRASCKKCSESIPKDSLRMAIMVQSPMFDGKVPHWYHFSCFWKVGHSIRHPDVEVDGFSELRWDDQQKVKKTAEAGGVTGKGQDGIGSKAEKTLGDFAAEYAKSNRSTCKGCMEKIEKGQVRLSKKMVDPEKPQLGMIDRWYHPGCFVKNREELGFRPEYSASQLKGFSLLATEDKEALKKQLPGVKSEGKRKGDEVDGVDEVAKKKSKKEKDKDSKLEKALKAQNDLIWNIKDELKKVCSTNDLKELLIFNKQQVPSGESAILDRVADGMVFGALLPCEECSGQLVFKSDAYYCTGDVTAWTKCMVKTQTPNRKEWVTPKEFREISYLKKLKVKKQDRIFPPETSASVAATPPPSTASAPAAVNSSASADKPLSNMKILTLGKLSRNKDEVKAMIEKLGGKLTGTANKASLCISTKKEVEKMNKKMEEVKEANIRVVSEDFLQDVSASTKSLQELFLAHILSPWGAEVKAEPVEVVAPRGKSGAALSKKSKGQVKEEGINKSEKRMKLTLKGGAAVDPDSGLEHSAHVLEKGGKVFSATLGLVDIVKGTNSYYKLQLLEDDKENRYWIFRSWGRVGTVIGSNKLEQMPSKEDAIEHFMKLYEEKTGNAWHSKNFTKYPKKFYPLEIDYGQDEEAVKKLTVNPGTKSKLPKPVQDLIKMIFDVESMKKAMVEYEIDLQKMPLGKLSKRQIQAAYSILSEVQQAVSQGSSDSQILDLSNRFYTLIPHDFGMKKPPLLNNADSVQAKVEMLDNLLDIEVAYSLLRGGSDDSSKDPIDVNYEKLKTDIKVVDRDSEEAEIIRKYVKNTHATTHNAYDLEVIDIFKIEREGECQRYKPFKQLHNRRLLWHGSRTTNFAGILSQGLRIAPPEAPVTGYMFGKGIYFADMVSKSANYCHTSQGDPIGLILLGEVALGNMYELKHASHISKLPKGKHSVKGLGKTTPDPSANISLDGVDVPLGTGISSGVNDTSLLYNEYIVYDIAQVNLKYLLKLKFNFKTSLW

SMILES | IC50 [4, 10] | IC50 (PARP1; [11]) | IC50 ([5]; H9c2, 48 h) | IC50 [1, 12] | IC50 [2, 13] | IC50 [3, 14] | RF (reversal fold) (MES-SA/Dx-5 cells [8]) | melting point | IC20 [4] | further results
O=C(c1cc(Cc2n[nH]c(=O)c3ccccc23)ccc1F)N1CCN(C(=O)C2CC2)CC1 [Olaparib, reference compound] | > 100 µM | – | – | – | – | – | – | – | – | IC50 ([1]; Homo sapiens, MES-SA, read-out: MES-SA, IC50): > 100 µM; IC50 ([2]; Homo sapiens, MCF7, 48 h, read-out: MCF-7, IC50): > 100 µM; IC50 ([3]; Homo sapiens, HCC1937, 48 h, read-out: HCC1937, IC50): > 100 µM
Cn1c(=O)c2c(Br)c(CN3CCCNCC3)[se]c2c2ccccc21 [Compound 1] | – | > 1 µM | > 300 µM | 17 to 21 µM | 17 to 21 µM | 17 to 21 µM | – | – | – | PARP1 activity (PARP1; at 1 µM concentration): did not decrease PARP1 activity; IC50 ([1]; read-out: MES-SA, IC50, MTT): 21 ± 3.9 µM; IC50 ([2]; read-out: MCF-7, IC50, MTT, 48 h): 17.1 ± 1.9 µM; IC50 ([3]; read-out: HCC1937, IC50, MTT, 48 h, BRCA1-deficient breast carcinoma): 19.9 ± 4.8 µM; IC20 ([6]; read-out: MES-SA/Dx5 IC20): 7.96 ± 3.03 µM; IC50 ([6]; read-out: MES-SA/Dx5 IC50): 21.1 ± 2.49 µM; RF (reversal fold) (MES-SA/Dx-5 cells [7]): 4.72 ± 0.63
Cn1c(=O)c2c(Br)c(CN3CCCN(C(=O)CCC(=O)N4CCN(C(=O)c5cc(Cc6n[nH]c(=O)c7ccccc67)ccc5F)CC4)CC3)[se]c2c2ccccc21 [Compound 5a, 1-(4-((3-Bromo-5-methyl-4-oxo-4,5-dihydroselenopheno[3,2-c]quinolin-2-yl)methyl)-1,4-diazepan-1-yl)-4-(4-(2-fluoro-5-((4-oxo-3,4-dihydrophthalazin-1-yl)methyl)benzoyl)piperazin-1-yl)butane-1,4-dione] | 21.1 ± 3.94 µM | 0.0046 ± 0.0005 µM | > 300 µM | 7.1 ± 2.7 µM | > 100 µM | 3.1 ± 1 µM | 0.84 ± 0.16 | > 200 °C | 0.48 ± 0.094 µM | –
Cn1c(=O)c2c(Br)c(CN3CCCN(C(=O)CCCCCCCCC(=O)N4CCN(C(=O)c5cc(Cc6n[nH]c(=O)c7ccccc67)ccc5F)CC4)CC3)[se]c2c2ccccc21 [Compound 5b, 1-(4-((3-Bromo-5-methyl-4-oxo-4,5-dihydroselenopheno[3,2-c]quinolin-2-yl)methyl)-1,4-diazepan-1-yl)-10-(4-(2-fluoro-5-((4-oxo-3,4-dihydrophthalazin-1-yl)methyl)benzoyl)piperazin-1-yl)decane-1,10-dione] | 1.67 ± 0.03 µM | 0.013 ± 0.0018 µM | > 300 µM | 32.5 ± 1.6 µM | > 100 µM | > 100 µM | 3.42 ± 0.12 | 172 to 174 °C | 0.86 ± 0.096 µM | times more cytotoxic to MES-SA/Dx-5 than regular MES-SA cells [9]: ~20 times
COc1cccc2c1C(=O)c1c(O)c3c(c(O)c1C2=O)C[C@@](O)(C(=O)CO)C[C@@H]3O[C@H]1C[C@H](N)[C@H](O)[C@H](C)O1 [Doxorubicin, reference compound] | – | – | – | – | – | – | – | – | – | IC50 ([5]; H9c2, MTT, 48 h): 3.9 ± 0.6 µM; IC50 ([1]; Homo sapiens, MES-SA, MTT, read-out: MES-SA, IC50): 0.084 ± 0.011 µM; IC50 ([2]; Homo sapiens, MCF7, 48 h, MTT, 48 h, read-out: MCF-7, IC50): 0.47 ± 0.14 µM; IC50 ([3]; Homo sapiens, HCC1937, 48 h, MTT, 48 h, BRCA1-deficient breast carcinoma, read-out: HCC1937, IC50): 1.08 ± 0.1 µM; IC50 ([4]; MES-SA/Dx5, read-out: Doxorubicin IC50): 2.4 ± 0.41 µM
Cn1c(=O)c2c(Br)c(CN3CCCN(C(=O)CCCCCCCCCCC(=O)N4CCN(C(=O)c5cc(Cc6n[nH]c(=O)c7ccccc67)ccc5F)CC4)CC3)[se]c2c2ccccc21 [Compound 5c, 1-(4-((3-Bromo-5-methyl-4-oxo-4,5-dihydroselenopheno[3,2-c]quinolin-2-yl)methyl)-1,4-diazepan-1-yl)-12-(4-(2-fluoro-5-((4-oxo-3,4-dihydrophthalazin-1-yl)methyl)benzoyl)piperazin-1-yl)dodecane-1,12-dione] | 26.2 ± 0.03 µM | 0.147 ± 0.0022 µM | > 300 µM | > 100 µM | > 100 µM | > 100 µM | 3.36 ± 0.11 | – | 0.549 ± 0.074 µM | IC50 (PARP1; read-out: PARP1 IC50): 0.147 µM
